pIC50: −log10 of the molar value.
Experiments:
RET = RET (Homo sapiens, UniProt P07949); assay: RET kinase mobility shift assay; assay type: biochemical
Procedure: (§1) The effect of the compounds on the activity of cKit, RET and AXL kinases were assessed by Mobility shift assay. • 1. 1× kinase base buffer and stop buffer for testing kinases were prepared • 1-1) 1× Kinase base buffer (50 mM HEPES, pH 7.5, 0.01% Triton X-100) • 1-2) Stop buffer (100 mM HEPES, pH 7.5, 0.015% Brij-35, 0.2% Coating Reagent #3, 50 mM EDTA) • 2. Compound and assay plate preparation: the compound was diluted to 50× of the final desired highest inhibitor concentration in reaction by 100% DMSO. 100 μl of this compound dilution was transferred to a well in a 96-well plate. For example, if the highest desired concentration was 5 μM, then 250 μM of compound DMSO solution was prepared in this step. For all compounds, the compound was serially diluted by transferring 10 μl to 70 μl of 100 DMSO in the next well and so forth for a total of 5 concentrations. 100 μl of 100% DMSO was added to two empty wells for no compound control and no enzyme control in the same 96-well plate. The plate was labeled as source plate. The intermediate plate was prepared by transferring 10 μl of compound from source plate to a new 96-well plate as the intermediate plate, adding 90 μl of 1× kinase buffer to each well of the intermediate plate, mixing the compounds in intermediate plate for 10 min on shaker. 5 μl of each well from the 96-well intermediate plate were transferred to a 384-well plate in duplicates. For example, A1 of the 96-well plate was transferred to A1 and A2 of the 384-well plate. A2 of the 96-well plate was transferred to A3 and A4 of the 384-well plate, and so on. • 4. Kinase reaction: The assay plate already contained 5 μl of compound in 10% DMSO. A 2.5× enzyme solution was prepared by adding kinases (cKit, RET, or AXL) and DTT in 1× kinase base buffer. 2.5× enzyme solution was transferred to the assay plate (by adding 10 μl of 2.5× enzyme solution to each well of the 384-well assay plate). The plate was incubated at room temperature for 10 min. 2.5× peptide solution was prepared by adding FAM-labeled peptide, ATP, MgCl2 in the 1× kinase base buffer. 2.5× peptide solution was added to the assay plate by adding 10 μl of 2.5× peptide solution to each well of the 384-well assay plate. The plate was incubated at 28° C. for the specified period of time. 25 μl of stop buffer was added to stop reaction. Data was collected on Caliper.

HPK1 (MAP4K1) = HPK1 (MAP4K1) (Homo sapiens, UniProt Q92918); assay: HPK1 (MAP4K1) kinase Lantha screen assay; assay type: biochemical
In short: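 Recombinant MAP4K1 preincubated 10 min with compound (6-point dilution, duplicates) in 50 mM HEPES pH 7.5, 10 mM MgCl2, then reacted with Fluorescein-PKC substrate and ATP for 90 min at room temperature. Antibody detection solution stopped reaction; after 60 min, TR-FRET read at ex 340 nm, em 520/495 nm.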

Axl = biological target: T1, Axl (Homo sapiens, UniProt P30530); assay: AXL kinase mobility shift assay; assay type: biochemical
T1 sequence (P30530 26-894): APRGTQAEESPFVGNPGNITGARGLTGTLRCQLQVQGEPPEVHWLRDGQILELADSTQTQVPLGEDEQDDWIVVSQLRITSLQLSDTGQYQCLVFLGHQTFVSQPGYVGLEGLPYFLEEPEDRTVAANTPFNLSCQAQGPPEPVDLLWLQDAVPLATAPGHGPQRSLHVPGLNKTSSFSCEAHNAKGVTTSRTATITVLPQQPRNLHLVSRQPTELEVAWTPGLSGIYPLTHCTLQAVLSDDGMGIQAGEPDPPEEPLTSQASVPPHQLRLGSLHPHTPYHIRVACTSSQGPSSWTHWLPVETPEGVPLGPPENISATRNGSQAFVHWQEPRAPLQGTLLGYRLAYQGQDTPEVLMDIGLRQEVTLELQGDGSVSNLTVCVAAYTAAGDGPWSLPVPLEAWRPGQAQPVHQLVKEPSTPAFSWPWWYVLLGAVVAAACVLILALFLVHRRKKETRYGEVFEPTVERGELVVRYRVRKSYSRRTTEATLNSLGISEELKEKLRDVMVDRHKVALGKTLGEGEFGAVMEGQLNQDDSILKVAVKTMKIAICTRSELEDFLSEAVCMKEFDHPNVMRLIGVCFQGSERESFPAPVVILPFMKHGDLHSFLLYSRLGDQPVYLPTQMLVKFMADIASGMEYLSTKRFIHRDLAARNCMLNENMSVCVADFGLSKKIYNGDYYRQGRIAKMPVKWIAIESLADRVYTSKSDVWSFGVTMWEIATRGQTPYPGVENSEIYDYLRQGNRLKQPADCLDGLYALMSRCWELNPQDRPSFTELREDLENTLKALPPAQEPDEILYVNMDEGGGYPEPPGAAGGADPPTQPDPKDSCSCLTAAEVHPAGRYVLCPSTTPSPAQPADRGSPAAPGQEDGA
Procedure: as §1

c-Kit = c-Kit (Homo sapiens, UniProt P10721); assay: cKit kinase mobility shift assay; assay type: biochemical
In short: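 Human kinase with DTT in 50 mM HEPES pH 7.5 and 0.01% Triton X-100 was preincubated with compound for 10 min at room temperature, using a 5-point dilution in duplicate. FAM-labeled peptide, ATP and MgCl2 were then added and the reaction run at 28° C. Reactions were stopped with EDTA buffer and peptide conversion was read by Caliper mobility shift.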

P-glycoprotein (MDR1) = assay: in vitro; settings: dog, MDCK-MDR1
PAK1 [1] = biological target: T2, PAK1 (Homo sapiens, UniProt Q13153); assay: In vitro kinase assay, PAK1 (Caliper EZ Reader conversion); assay type: biochemical; design: purchased Carna Biosciences
In short: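 Human PAK1 was preincubated with compound (6 concentrations, 4-fold dilutions) for 10 min at room temperature, then reacted with substrate mix for 30 and 60 min. Substrate conversion was read by Caliper mobility shift. IC50 was fitted by variable-slope log(inhibitor)–response, normalised to FRAX597 and buffer controls.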

PAK1 [2] = biological target: T2, PAK1; settings: background statement on known PAK1 inhibitors; result in words only; cited from earlier work

c-Kit, sequence (P10721 26-976): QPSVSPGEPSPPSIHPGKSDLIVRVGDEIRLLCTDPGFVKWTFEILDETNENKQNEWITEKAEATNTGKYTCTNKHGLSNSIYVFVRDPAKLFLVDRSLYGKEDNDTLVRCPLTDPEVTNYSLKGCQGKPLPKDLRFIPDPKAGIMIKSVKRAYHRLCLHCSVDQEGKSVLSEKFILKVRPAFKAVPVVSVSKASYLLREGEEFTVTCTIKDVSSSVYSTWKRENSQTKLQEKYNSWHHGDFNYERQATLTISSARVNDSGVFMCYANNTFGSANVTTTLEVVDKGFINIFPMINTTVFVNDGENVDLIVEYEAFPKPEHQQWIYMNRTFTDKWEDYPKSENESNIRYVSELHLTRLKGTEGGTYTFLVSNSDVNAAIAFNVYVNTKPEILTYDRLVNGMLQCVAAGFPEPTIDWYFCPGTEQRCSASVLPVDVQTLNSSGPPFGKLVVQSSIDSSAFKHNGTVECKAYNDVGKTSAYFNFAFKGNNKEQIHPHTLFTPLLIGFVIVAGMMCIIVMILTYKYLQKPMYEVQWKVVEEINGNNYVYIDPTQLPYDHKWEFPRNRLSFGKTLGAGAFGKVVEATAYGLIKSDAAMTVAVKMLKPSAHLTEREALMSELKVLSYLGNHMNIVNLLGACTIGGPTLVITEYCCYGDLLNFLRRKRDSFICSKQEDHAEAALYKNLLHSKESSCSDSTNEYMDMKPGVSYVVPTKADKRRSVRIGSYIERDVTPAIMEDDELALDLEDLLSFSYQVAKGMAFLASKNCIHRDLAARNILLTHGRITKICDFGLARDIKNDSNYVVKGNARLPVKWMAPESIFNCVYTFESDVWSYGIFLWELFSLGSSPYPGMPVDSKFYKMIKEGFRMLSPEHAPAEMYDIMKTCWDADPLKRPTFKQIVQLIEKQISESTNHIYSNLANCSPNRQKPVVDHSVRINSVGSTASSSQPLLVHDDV
HPK1 (MAP4K1), sequence (Q92918 whole entry, species assumed): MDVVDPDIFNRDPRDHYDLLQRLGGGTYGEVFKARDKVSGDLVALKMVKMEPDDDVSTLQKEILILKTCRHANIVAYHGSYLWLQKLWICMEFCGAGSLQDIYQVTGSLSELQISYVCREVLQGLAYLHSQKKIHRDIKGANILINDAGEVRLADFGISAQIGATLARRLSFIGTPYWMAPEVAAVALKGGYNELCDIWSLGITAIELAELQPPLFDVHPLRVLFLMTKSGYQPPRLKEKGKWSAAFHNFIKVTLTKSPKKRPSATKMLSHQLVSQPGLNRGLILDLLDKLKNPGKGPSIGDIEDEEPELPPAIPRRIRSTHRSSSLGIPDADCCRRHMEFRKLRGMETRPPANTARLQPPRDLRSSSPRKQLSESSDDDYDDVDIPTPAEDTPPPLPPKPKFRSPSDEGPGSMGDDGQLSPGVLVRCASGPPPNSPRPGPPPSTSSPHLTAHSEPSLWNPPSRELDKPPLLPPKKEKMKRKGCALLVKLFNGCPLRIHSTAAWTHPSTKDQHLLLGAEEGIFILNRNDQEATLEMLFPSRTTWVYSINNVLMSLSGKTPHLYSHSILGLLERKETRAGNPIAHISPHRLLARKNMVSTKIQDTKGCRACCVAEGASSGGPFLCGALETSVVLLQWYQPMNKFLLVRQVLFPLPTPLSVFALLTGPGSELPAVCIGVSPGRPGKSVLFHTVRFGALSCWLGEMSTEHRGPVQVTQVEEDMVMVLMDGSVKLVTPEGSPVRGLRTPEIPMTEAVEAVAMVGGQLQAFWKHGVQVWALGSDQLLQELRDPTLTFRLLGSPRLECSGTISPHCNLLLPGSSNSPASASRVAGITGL
RET, sequence (P07949 29-1114, species assumed): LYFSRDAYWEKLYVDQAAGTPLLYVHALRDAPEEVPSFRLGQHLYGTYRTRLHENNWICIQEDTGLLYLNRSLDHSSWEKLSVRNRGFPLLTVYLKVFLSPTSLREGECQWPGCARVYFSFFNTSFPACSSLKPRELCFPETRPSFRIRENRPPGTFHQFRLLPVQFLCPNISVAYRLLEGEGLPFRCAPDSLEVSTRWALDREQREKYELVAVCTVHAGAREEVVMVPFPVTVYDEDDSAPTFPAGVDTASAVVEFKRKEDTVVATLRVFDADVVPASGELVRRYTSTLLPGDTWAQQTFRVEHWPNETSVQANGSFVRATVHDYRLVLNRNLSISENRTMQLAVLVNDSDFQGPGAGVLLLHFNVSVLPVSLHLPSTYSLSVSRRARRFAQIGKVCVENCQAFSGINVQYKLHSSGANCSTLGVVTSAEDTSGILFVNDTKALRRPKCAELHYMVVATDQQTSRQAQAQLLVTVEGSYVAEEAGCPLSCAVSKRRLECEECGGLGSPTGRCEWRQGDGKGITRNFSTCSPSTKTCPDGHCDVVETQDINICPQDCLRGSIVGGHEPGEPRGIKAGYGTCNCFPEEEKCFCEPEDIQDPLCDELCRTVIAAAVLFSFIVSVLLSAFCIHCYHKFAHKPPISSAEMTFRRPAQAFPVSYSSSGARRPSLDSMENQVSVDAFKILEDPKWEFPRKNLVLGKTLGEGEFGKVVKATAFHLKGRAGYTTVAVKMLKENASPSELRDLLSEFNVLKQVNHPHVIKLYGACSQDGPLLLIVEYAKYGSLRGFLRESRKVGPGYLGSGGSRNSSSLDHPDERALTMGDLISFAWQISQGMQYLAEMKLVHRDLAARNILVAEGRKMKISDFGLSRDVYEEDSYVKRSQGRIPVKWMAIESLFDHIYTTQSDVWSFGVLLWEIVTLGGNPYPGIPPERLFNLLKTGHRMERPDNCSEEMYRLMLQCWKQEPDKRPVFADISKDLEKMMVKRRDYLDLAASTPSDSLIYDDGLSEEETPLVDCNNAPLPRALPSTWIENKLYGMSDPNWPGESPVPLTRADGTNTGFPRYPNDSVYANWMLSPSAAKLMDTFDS
T2 sequence (Q13153 whole entry): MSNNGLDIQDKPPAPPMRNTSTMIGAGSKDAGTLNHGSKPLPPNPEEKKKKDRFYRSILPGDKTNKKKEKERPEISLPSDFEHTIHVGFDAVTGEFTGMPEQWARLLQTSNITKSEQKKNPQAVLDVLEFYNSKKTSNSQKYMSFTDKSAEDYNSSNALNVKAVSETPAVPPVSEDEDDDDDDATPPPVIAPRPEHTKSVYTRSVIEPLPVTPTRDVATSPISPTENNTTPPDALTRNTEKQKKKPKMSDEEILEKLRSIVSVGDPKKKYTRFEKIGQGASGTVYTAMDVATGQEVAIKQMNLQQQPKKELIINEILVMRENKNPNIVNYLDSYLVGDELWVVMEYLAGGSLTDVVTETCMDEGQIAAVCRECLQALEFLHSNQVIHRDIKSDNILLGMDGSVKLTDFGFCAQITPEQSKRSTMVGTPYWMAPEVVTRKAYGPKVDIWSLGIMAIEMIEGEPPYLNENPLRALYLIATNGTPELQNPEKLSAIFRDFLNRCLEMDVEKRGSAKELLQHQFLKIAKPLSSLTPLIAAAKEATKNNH

| pIC50 (RET) | pIC50 (HPK1 (MAP4K1)) | SMILES | also measured |
| --- | --- | --- | --- |
| 5.00 to 7.00 | < 5.00 | CNc1ncc2c(n1)N1CCN=C1C(c1ccc(NC(=O)C3(C(=O)Nc4ccc(F)cc4)CC3)cc1F)=C2 [Compound 340, N-(3-fluoro-4-(2-(methylamino)-8,9-dihydroimidazo[1′,2′:1,6]pyrido[2,3-d]pyrimidin-6-yl)phenyl)-N-(4-fluorophenyl)cyclopropane-1,1-dicarboxamide] | pIC50 (Axl): < 5.00 |
| > 7.00 | 5.00 to 7.00 | CNc1ncc2c(n1)N1CCN=C1C(c1cc(NC(=O)c3cc(C(F)(F)F)ccn3)ccc1Cl)=C2 [Compound 136, N-(4-chloro-3-(2-(methylamino)-8,9-dihydroimidazo[1′,2′:1,6]pyrido[2,3-d]pyrimidin-6-yl)phenyl)-4-(trifluoromethyl)picolinamide] | pIC50 (c-Kit): > 7.00 |
| > 7.00 | 5.00 to 7.00 | Cc1ccc(NC(=O)c2cc(C(F)(F)F)ccn2)cc1C1=Cc2cnc(NCCF)nc2N2CCN=C12 [Compound 111, N-(3-(2-((2-fluoroethyl)amino)-8,9-dihydroimidazo[1′,2′:1,6]pyrido[2,3-d]pyrimidin-6-yl)-4-methylphenyl)-4-(trifluoromethyl)picolinamide] |  |
| < 5.00 | < 5.00 | CNc1nc(C)c2c(n1)N1CCN=C1C(c1cc(NC(=O)c3cc(C(F)(F)F)ccn3)ccc1C)=C2 [Compound 122, N-(4-methyl-3-(4-methyl-2-(methylamino)-8,9-dihydroimidazo[1′,2′:1,6]pyrido[2,3-d]pyrimidin-6-yl)phenyl)-4-(trifluoromethyl)picolinamide] |  |
| 5.00 to 7.00 | 5.00 to 7.00 | CNc1ncc2c(n1)N1C(=NC[C@H]1C)C(c1cc(NC(=O)c3cc(C(F)(F)F)ccn3)ccc1C)=C2 [Compound 129, (R)—N-(4-methyl-3-(9-methyl-2-(methylamino)-8,9-dihydroimidazo[1′,2′:1,6]pyrido[2,3-d]pyrimidin-6-yl)phenyl)-4-(trifluoromethyl)picolinamide] |  |
|  | > 7.00 | Cc1ccc(NC(=O)c2cc(C(F)(F)F)ccn2)cc1C1=Cc2cnc(NC3CCOCC3)nc2N2CCN=C12 [Compound 115, N-(4-methyl-3-(2-((tetrahydro-2H-pyran-4-yl)amino)-8,9-dihydroimidazo[1′,2′:1,6]pyrido[2,3-d]pyrimidin-6-yl)phenyl)-4-(trifluoromethyl)picolinamide hydrogen chloride] | pIC50 (c-Kit): > 7.00; Papp A→B at 120 min (P-glycoprotein (MDR1)): 22.8 ×10⁻⁶ cm/s; Papp B→A at 120 min (P-glycoprotein (MDR1)): 36.9 ×10⁻⁶ cm/s; efflux ratio at 120 min (P-glycoprotein (MDR1)): 1.6 |
| 5.00 to 7.00 | > 7.00 | CNc1ncc2c(n1)N1CCN=C1C(c1cc(NC(=O)C3(C(=O)Nc4ccc(F)cc4)CC3)ccc1F)=C2 [Compound 341, N-(4-fluoro-3-(2-(methylamino)-8,9-dihydroimidazo[1′,2′:1,6]pyrido[2,3-d]pyrimidin-6-yl)phenyl)-N-(4-fluorophenyl)cyclopropane-1,1-dicarboxamide] | pIC50 (Axl): < 5.00 |
| > 7.00 | > 7.00 | CNc1ncc2c(n1)N1C(=NC[C@@H]1C)C(c1cc(NC(=O)c3cc(C(F)(F)F)ccn3)ccc1C)=C2 [Compound 130, (S)—N-(4-methyl-3-(9-methyl-2-(methylamino)-8,9-dihydroimidazo[1′,2′:1,6]pyrido[2,3-d]pyrimidin-6-yl)phenyl)-4-(trifluoromethyl)picolinamide] |  |
| > 7.00 | 5.00 to 7.00 | CNc1ncc2c(n1)N1CCN=C1C(c1cc(NC(=O)c3cc(C(F)(F)F)ccn3)ccc1C)=C2 [Compound 107, N-(4-methyl-3-(2-(methylamino)-8,9-dihydroimidazo[1′,2′:1,6]pyrido[2,3-d]pyrimidin-6-yl)phenyl)-4-(trifluoromethyl)picolinamide] | pIC50 (c-Kit): > 7.00; pIC50 (PAK1 [1]): < 5.00 |
|  |  | CNc1ncc2cc(-c3ccc(-c4cccc(C)n4)cc3Cl)c(=O)n(C[C@H]3OC[C@H](N)CO3)c2n1 [Compound G-5555] | inhibition of the PAK1 enzyme (PAK1 [2]): potent PAK1 inhibitors |
| > 7.00 | > 7.00 | Cc1ccc(Nc2ncc3c(n2)N2CCN=C2C(c2cc(NC(=O)c4cc(C(F)(F)F)ccn4)ccc2C)=C3)cn1 [Compound 208, N-(4-methyl-3-(2-((6-methylpyridin-3-yl)amino)-8,9-dihydroimidazo[1′,2′:1,6]pyrido[2,3-d]pyrimidin-6-yl)phenyl)-4-(trifluoromethyl)picolinamide] |  |
| 5.00 to 7.00 | 5.00 to 7.00 | CNc1ncc2c(n1)N1CCN=C1C(c1cc(NC(=O)c3cc(C(F)(F)F)ccn3)ccc1F)=C2C [Compound 121, N-(4-fluoro-3-(5-methyl-2-(methylamino)-8,9-dihydroimidazo[1′,2′:1,6]pyrido[2,3-d]pyrimidin-6-yl)phenyl)-4-(trifluoromethyl)picolinamide] |  |
| 5.00 to 7.00 | 5.00 to 7.00 | CNc1ncc2c(n1)N1CCN=C1C(c1cc(NC(=O)c3cc(C(F)(F)F)ccn3)ccc1C)=C2C [Compound 120, N-(4-methyl-3-(5-methyl-2-(methylamino)-8,9-dihydroimidazo[1′,2′:1,6]pyrido[2,3-d]pyrimidin-6-yl)phenyl)-4-(trifluoromethyl)picolinamide] |  |

Reference: US20230303570A1, “KINASE INHIBITORS AND USES THEREOF” (ABM Therapeutics Corporation, priority 2020, published 2023)
